Data as given in US6509002B1, “Diagnostic agent for diabetes” (priority 1997, dated 2003).
One block for each compound: values may come before it.

Assay: ^13C breath test, intravenous administration (femoral vein), diabetic vs normal rats
Assay type: in vivo, rat
Description: As test animals, male Sprague-Dawley strain (SD) neonatal rats were purchased from Nippon Charles River K. K. together with their lactating rats. […] Insulin secretion-deficient type diabetes was generated by administering streptozotocin (STZ) to neonatal rats (“Saibokogaku (Cell Engineering)”, Extra Issue, medical Experiment Manual Series, Strategy for Study of Diabetes, edited by Susumu Seino and Yoshikazu Oka, published by Shujunsha Co., Japan). STZ was subcutaneously administered to 2-day-old rats at a dose of 90 mg/kg. […] Two days after the administration, blood was collected by cardiac puncture, and the casual blood sugar level of each rat was measured with Terumo […] (blood sugar measurement set). […] Breath tests were carried out according to the method as described in (2)-1 or (2)-2 below on diabetic rats prepared in (1) above (8-10-week-old) and normal rats (8-10-week-old). […] A blood sample was collected from the tail vein, and its sugar level was determined using Terumo […] (blood sugar measurement set). […] Fine Science Tools Inc.).

[1] = diabetic rats, 10 mg/kg from the femoral vein, Example 34
[2] = normal rats, 10 mg/kg from the femoral vein, Example 34
[3] = diabetic rats, 50 mg/kg from the femoral vein, Example 35
[4] = normal rats, 50 mg/kg from the femoral vein, Example 35
[5] = diabetic rats, 20 mg/kg from the femoral vein, Example 8
[6] = normal rats, 20 mg/kg from the femoral vein, Example 8
[7] = diabetic rats, 20 mg/kg from the femoral vein, Example 22
[8] = normal rats, 20 mg/kg from the femoral vein, Example 22
[9] = diabetic rats, 70 mg/kg from the femoral vein, Example 30
[10] = normal rats, 70 mg/kg from the femoral vein, Example 30
[11] = diabetic rats, 10 mg/kg from the femoral vein, Example 25
[12] = normal rats, 10 mg/kg from the femoral vein, Example 25
[13] = diabetic rats, 20 mg/kg from the femoral vein, Example 21
[14] = normal rats, 20 mg/kg from the femoral vein, Example 21
[15] = diabetic rats, 50 mg/kg from the femoral vein, Example 16
[16] = normal rats, 50 mg/kg from the femoral vein, Example 16
[17] = diabetic rats (n=2), 20 mg/kg from the femoral vein, Example 18
[18] = normal rats, 20 mg/kg from the femoral vein, Example 18
[19] = diabetic rats, 10 mg/kg from the femoral vein, Example 15
[20] = normal rats, 10 mg/kg from the femoral vein, Example 15
[21] = diabetic rats, 20 mg/kg from the femoral vein, Example 11
[22] = normal rats, 20 mg/kg from the femoral vein, Example 11
[23] = diabetic rats, 30 mg/kg from the femoral vein, Example 32
[24] = normal rats, 30 mg/kg from the femoral vein, Example 32
[25] = diabetic rats, 10 mg/kg from the femoral vein, Example 9
[26] = normal rats, 10 mg/kg from the femoral vein, Example 9
[27] = diabetic rats, 20 mg/kg from the femoral vein, Example 12
[28] = normal rats, 20 mg/kg from the femoral vein, Example 12

SMILES: O=[13CH][C@H](O)[C@@H](O)[C@@H](O)[C@H](O)CO [1-^13C-galactose]
- time course of Δ^13C values (‰) (rat, in vivo, 100 mg/kg): continued increasing up to 30 min

SMILES: C[13C](=O)OCC(CO[13C](C)=O)O[13C](C)=O [1,1,1-^13C-triacetin]
- slope from 6 to 10 min after the administration [1]: −6.26±1.50 ‰/4 min
- time course of Δ^13C values (‰) [1]: increased sharply up to about 8 min after the administration, but thereafter decreased gradually up to 20 min
- Δ^13C value (‰) at 4 min after the administration [1]: 41.97±2.79 ‰
- slope from 6 to 10 min after the administration [2]: −0.83±0.90 ‰/4 min
- time course of Δ^13C values (‰) [2]: continued increasing up to 20 min
- Δ^13C value (‰) at 4 min after the administration [2]: 27.29±2.31 ‰

SMILES: O=C([13CH2]O)[C@@H](O)[C@H](O)[C@H](O)CO [1-^13C-fructose]
- time course of Δ^13C values (‰) (rat, in vivo, 100 mg/kg): continued increasing up to 20 min

SMILES: OC[13CH](O)CO [2-^13C-glycerol]
- slope from 2 to 7 min after the administration [3]: 62.72±3.22 ‰/5 min
- time course of Δ^13C values (‰) [3]: increased sharply up to about 8 min after the administration, and thereafter increased gradually up to 20 min
- Δ^13C value (‰) at 20 min after the administration [3]: 112.44±5.12 ‰
- slope from 2 to 7 min after the administration [4]: 16.99±1.61 ‰/5 min
- time course of Δ^13C values (‰) [4]: continued increasing gradually up to 20 min after the administration of 2-^13C-glycerol, and thereafter remained at an almost constant level
- Δ^13C value (‰) at 20 min after the administration [4]: 54.77±4.23 ‰

SMILES: CCCCCCCC/C=C\CCCCCCC[13C](=O)O [1-^13C-oleic acid]
- slope from 10 to 20 min after the administration [9]: −12.79±3.72 ‰/10 min
- time course of Δ^13C values (‰) [9]: increased sharply up to about 8 min after the administration, but thereafter decreased gradually up to 20 min
- Δ^13C value (‰) at 8 min after the administration [9]: 132.93±7.09 ‰
- slope from 10 to 20 min after the administration [10]: 13.61±4.58 ‰/10 min
- time course of Δ^13C values (‰) [10]: continued increasing up to 20 min
- Δ^13C value (‰) at 8 min after the administration [10]: 86.51±14.72 ‰

SMILES: O=[13C](O)C1CCCN1 (centres unmarked) [1-^13C-proline]
- time course of Δ^13C values (‰) [13]: increased up to about 9 min after the administration of 1-^13C-proline, but thereafter decreased gradually up to 20 min
- Δ^13C value (‰) at 20 min after the administration [13]: 115.77±6.61 ‰
- time course of Δ^13C values (‰) [14]: increased up to about 9 min after the administration of 1-^13C-proline, but thereafter decreased gradually up to 20 min
- Δ^13C value (‰) at 20 min after the administration [14]: 92.27±11.10 ‰

SMILES: CCCCCCC[13C](=O)O [1-^13C-octanoic acid]
- slope from 10 to 20 min after the administration [23]: −20.55±7.75 ‰/10 min
- time course of Δ^13C values (‰) [23]: increased sharply up to about 5 min after the administration, but thereafter decreased gradually up to 20 min
- slope from 10 to 20 min after the administration [24]: −4.76±4.41 ‰/10 min
- time course of Δ^13C values (‰) [24]: increased sharply up to about 5 min after the administration of 1-^13C-octanoic acid, and thereafter remained at an almost constant level up to 20 min

The next lines start with results.

- slope from 2 to 5 min after the administration [5]: 56.21±2.09 ‰/3 min
- Δ^13C value (‰) at 5 min after the administration [5]: 83.92±5.53 ‰
- slope from 2 to 5 min after the administration [6]: 33.21±2.44 ‰/3 min
- time course of Δ^13C values (‰) [6]: continued increasing up to 20 min
- Δ^13C value (‰) at 5 min after the administration [6]: 46.98±3.24 ‰
SMILES: CC[C@H](C)[C@H](N)[13C](=O)O [1-^13C-isoleucine]
- time course of Δ^13C values (‰) [5]: increased sharply up to about 9 min after the administration, but thereafter remained at an almost constant level up to 20 min

- Δ^13C value (‰) at 7 min after the administration [7]: 156.62±10.83 ‰
- Δ^13C value (‰) at 7 min after the administration [8]: 119.06±12.19 ‰
SMILES: NC[13C](=O)O [1-^13C-glycine]
- time course of Δ^13C values (‰) [7]: increased sharply up to about 5 min after the administration, but thereafter decreased gradually up to 20 min
- time course of Δ^13C values (‰) [8]: increased sharply up to about 5 min after the administration of 1-^13C-glycine, remained at an almost constant level up to about 12 min, but thereafter decreased gradually up to 20 min

- slope from 3 to 8 min after the administration [11]: −53.79±11.42 ‰/5 min
- Δ^13C value (‰) at 3 min after the administration [11]: 172.66±8.65 ‰
- slope from 3 to 8 min after the administration [12]: −8.13±10.84 ‰/5 min
- Δ^13C value (‰) at 3 min after the administration [12]: 126.56±13.45 ‰
SMILES: N[C@@H](CC(=O)O)[13C](=O)O [1-^13C-aspartic acid]
- time course of Δ^13C values (‰) [11]: increased sharply up to about 2 min after the administration of 1-^13C-aspartic acid, but thereafter decreased gradually up to 20 min
- time course of Δ^13C values (‰) [12]: increased sharply up to about 2 min after the administration of 1-^13C-aspartic acid, but thereafter decreased gradually up to 20 min

- slope from 1 to 4 min after the administration [15]: 158.13±41.24 ‰/3 min
- Δ^13C value (‰) at 10 min after the administration [15]: 228.08±43.45 ‰
- slope from 1 to 4 min after the administration [16]: 84.17±11.38 ‰/3 min
- Δ^13C value (‰) at 10 min after the administration [16]: 127.79±10.69 ‰
SMILES: N[C@@H](CO)[13C](=O)O [1-^13C-serine]
- time course of Δ^13C values (‰) [15]: increased sharply up to about 8 min after the administration, but thereafter decreased gradually up to 20 min
- time course of Δ^13C values (‰) [16]: increased up to about 8 min after the administration of 1-^13C-serine, and thereafter remained at an almost constant level

- slope from 1 to 2 min after the administration [17]: 105.59 ‰/min
- Δ^13C value (‰) at 5 min after the administration [17]: 168.18 ‰
- slope from 1 to 2 min after the administration [18]: 69.88±11.51 ‰/min
- Δ^13C value (‰) at 5 min after the administration [18]: 107.17±15.42 ‰
SMILES: NC(=O)CC[C@H](N)[13C](=O)O [1-^13C-glutamine]
- time course of Δ^13C values (‰) (diabetic rats, 20 mg/kg from the femoral vein, Example 18): increased sharply up to about 3 min after the administration, but thereafter decreased gradually up to 20 min
- time course of Δ^13C values (‰) [18]: increased sharply up to about 3 min after the administration of 1-^13C-glutamine, and thereafter increased gradually up to 20 min

- slope from 10 to 15 min after the administration [19]: 4.46±0.49 ‰/5 min
- time course of Δ^13C values (‰) [19]: continued increasing up to 20 min
- Δ^13C value (‰) at 20 min after the administration [19]: 19.42±4.37 ‰
- slope from 10 to 15 min after the administration [20]: 1.20±0.93 ‰/5 min
- time course of Δ^13C values (‰) [20]: continued increasing up to 20 min
- Δ^13C value (‰) at 20 min after the administration [20]: 8.10±0.77 ‰
SMILES: N[C@@H](Cc1c[nH]c2ccccc12)[13C](=O)O [1-^13C-tryptophan]

- slope from 2 to 4 min after the administration [21]: 38.55±3.15 ‰/2 min
- Δ^13C value (‰) at 5 min after the administration [21]: 73.54±7.30 ‰
- slope from 2 to 4 min after the administration [22]: 24.17±2.32 ‰/2 min
- Δ^13C value (‰) at 5 min after the administration [22]: 45.99±5.62 ‰
SMILES: CC(C)[C@H](N)[13C](=O)O [1-^13C-valine]
- time course of Δ^13C values (‰) [21]: sharply increased up to about 6 min after the administration of 1-^13C-valine, and thereafter increased gradually up to 20 min
- time course of Δ^13C values (‰) [22]: sharply increased up to about 6 min after the administration of 1-^13C-valine, and thereafter increased gradually up to 20 min

- slope from 5 to 15 min after the administration [25]: −52.09±19.38 ‰/10 min
- Δ^13C value (‰) at 10 min after the administration [25]: 161.35±6.670 ‰
- slope from 5 to 15 min after the administration [26]: −18.12±7.28 ‰/10 min
- Δ^13C value (‰) at 10 min after the administration [26]: 132.16±3.53 ‰
SMILES: C[C@H](N)[13C](=O)O [1-^13C-alanine]
- time course of Δ^13C values (‰) [25]: sharply increased up to 4 min after the administration of 1-^13C-alanine, but thereafter decreased gradually up to 20 min
- time course of Δ^13C values (‰) [26]: sharply increased up to 4 min after the administration of 1-^13C-alanine, but thereafter decreased gradually up to 20 min

- slope from 2 to 7 min after the administration [27]: 87.79±12.93 ‰/5 min
- Δ^13C value (‰) at 10 min after the administration [27]: 155.70±17.99 ‰
- slope from 2 to 7 min after the administration [28]: 53.56±4.72 ‰/5 min
- time course of Δ^13C values (‰) [28]: continued increasing up to 20 min
- Δ^13C value (‰) at 10 min after the administration [28]: 100.71±5.97 ‰
SMILES: Cl.NCCC[13C@H](N)[13C](=O)O [1,2-^13C-ornithine hydrochloride]
- time course of Δ^13C values (‰) [27]: increased up to about 14 min after the administration, and thereafter remained at an almost constant level up to 20 min
